Measured values reported in patent EP4799701A2, “PYRIMID-2-YL-PYRAZOLE COMPOUNDS AS IRAK INHIBITORS” (Rigel Pharmaceuticals, Inc., priority 2022, dated 2023).

Test system: TLR4-induced IL-23
Assay: LPS induced IL23p19 in THP-1 cells (IFNγ primed), IL-23p19 sandwich ELISA
Type: cell-based, human
Conditions: human THP-1 cells; result in words
Source text: LPS induced IL23p19 in THP-1 cells (with IFNy primed) Assay
THP-1 Cells (ATCC, Cat# TIB-202), Dimethyl Sulfoxide (DMSO) (Sigma-Aldrich, Cat# D2650), RPMI 1640 (Cellgro, Cat# 10-040-CM), Fetal Bovine Serum (Sigma, Cat# F4135), Albumin From Bovine Serum (BSA) (Sigma-Aldrich, Cat#A7906), LPS (Serotype K-235, Sigma, Product Number L 2143), IFNγ (Peprotech, Cat# 300-02), Capture antibody: Human IL-23p19 ELISA (e-Bioscience, Cat. # 14-7238-85), Detection antibody: Primary Mouse Biotinylated anti-human IL-12(p40/p70) (e-Bioscience, Cat. # 13-7129-85), Secondary HRP-conjugated Streptavidin (R&D Systems, Cat#DY998), 1x PBST Washing Buffer (PBS-Tween tablet) (VWR International, Cat#80058-558), ELISA Blocking Buffer (PBS with 1% BSA), ELISA Dilution Buffer (PBS with 1% BSA), 384 Well Flat-Bottom, MaxiSorp Black Immuno Plates (Thermo Scientific, Cat# 12-565-346), 384 Well Flat-Bottom, White Tissue Culture Plates (Thermo Scientific, Cat# 12-565-343), Super Signal ELISA Pico Chemiluminescent Substrate (Thermo Scientific, Cat#37070), Cell Titer Glo reagent (Promega, Cat#G7573), Positive control, IKK2VI inhibitor (Calbiochem, Cat#401483), AquaMax 4000 plate washer (Molecular Devices), Luminometer, Wallac Victor2 1420 Multilabel Counter.
On day 1, 50K/well THP-1 cells were seeded and primed with IFNγ (50ng/mL) in 384-well plates for about 18 hours in RPMI media with 10%FBS. On day 2, the compound was serially diluted in DMSO from 5 mM in 3-fold dilutions, and then diluted 1:125 in RPMI media with 10%FBS. […] IL-23p19 protein in 70 µL/well of supernatant was measured by sandwich ELISA, and 25 µl/well Cell Titer Glo reagent was added to the remaining cells to measure compound toxicity.
Maxisorp immuno ELISA plates were pre-coated with 25 µL/well of anti-IL-23p19 capture antibody (2.5ug/mL) in PBS overnight at room temperature. […] The plates were read with a luminometer, and the chemiluminescence values were entered into Athena (Rigel) for curve fitting, EC50 calculation, and database storage. […]

In the case of CCO[C@H]1CC[C@H](n2cc(NC(=O)c3csc(-c4cn[nH]c4)n3)c(-c3ncccn3)n2)CC1 [Compound I-1, N-(1-((1r,4r)-4-ethoxycyclohexyl)-3-(pyrimidin-2-yl)-1H-pyrazol-4-yl)-2-(1H-pyrazol-4-yl)thiazole-4-carboxamide], the “TLR4-induced IL-23 production” value is reported as “inhibits”.
